Measured values from patent US12298315B2, “Systems and methods to identify and treat subjects at risk for obstetrical complications” (Wayne State University, priority 2014, dated 2025).

How the values were obtained:
[1] = cited from earlier work
sVEGFR-1 = assay: Maternal plasma sVEGFR-1 concentration by immunoassay; type: in vivo, human; settings: pravastatin 20 mg once daily since 17+4 weeks, one pregnant subject
Experimental: (§1) Sample collection and immunoassays. Blood was obtained by venipuncture and collected into tubes containing EDTA. Samples were centrifuged and stored at −70° C. Maternal plasma concentrations of sVEGFR-1, PIGF, and sEng were determined by sensitive and specific immunoassays (R&D Systems). The inter- and intra-assay coefficients of variation (CV) were: 1.4% and 3.9% for sVEGFR-1, 2.3% and 4.6% for sEng, and 6.02% and 4.8%, respectively, for PIGF. The sensitivity of the assays was 16.97 […], 0.08 ng/ml for sEng, and 9.52 […]. The laboratory personnel performing the assays were blinded to the clinical information.
(§2) Sample Collection and Immunoassays. Blood was obtained by venipuncture and collected into tubes containing EDTA at enrollment and every four weeks until the 24th week of gestation, as well as bi-weekly thereafter until delivery. Samples were centrifuged and stored at −70° C. Maternal plasma concentrations of sVEGFR-1, PIGF, and sEng were determined by immunoassays. The inter- and intra-assay coefficients of variation (CV) of the assays were: 1.4% and 3.9% for sVEGFR-1, 2.3% and 4.6% for sEng, and 6.02% and 4.8%, respectively, for PIGF. The sensitivities of the assays were 16.97 […], 0.08 ng/ml for sEng, and 9.52 […]. Laboratory personnel performing the assays were blinded to the clinical information.
(§3) The subject received subcutaneous 5000 units of heparin twice a day, 81 mg aspirin tablet daily, and IVIG 1 mg/kg every four weeks from the beginning of the current pregnancy. At 12 weeks and 2 days gestation, maternal PAPP-A concentration was low (1st percentile). […] However, bilateral UtA notching (mean UtA PI 2.23 (95th percentile)) was noted, and the plasma angiogenic/anti-angiogenic factor ratio concentrations were low. At 13, 15, and 17 weeks of gestation, plasma concentrations of sVEGFR-1 and sEng were extremely high (96th-98th percentile; see Table 9 and FIGS. 8A and 8C)), and those of PIGF were within normal limits (59th-62nd percentile; Table 9, FIG. 8B). The PIGF/sVEGFR-1 concentration ratios were low, in the 4th, 6th, and 10th percentiles, respectively (see FIG. 8D).
(§4) The subject was informed of these findings, of the poor prognosis associated with extremely high plasma sVEGFR-1 concentrations, and of the likelihood that this pregnancy, like their previous one, could be affected by MF. After being counseled extensively about the potential adverse events and issues of safety of pravastatin administration during pregnancy, and informed that there was little evidence from animal experiments that pravastatin could reverse angiogenic/anti-angiogenic factor imbalances, the subject was offered and opted to receive pravastatin 20 milligrams once daily at 17 weeks and 4 days of gestation. At 21 weeks of gestation, the plasma concentrations of sVEGFR-1 decreased to the normal range (56th percentile) while that of PIGF increased to 93rd percentile. Plasma sEng remained high, at the 94th percentile.
(§5) Sample Collection and Immunoassays. Venipuncture was performed serially at regular prenatal visits and admissions to the hospital for all normal and MPFD affected pregnancies. Blood was collected into tubes containing EDTA. Samples were centrifuged and stored at −70° C. until used for assay. Sensitive and specific immunoassays (R&D systems, Minneapolis, MN) were used to determine maternal plasma concentrations of PIGF, sEng, sVEGFR-1 and -2. All immunoassays utilized the quantitative sandwich enzyme immunoassay technique, and their concentrations in maternal plasma were determined by interpolation from the standard curves. The inter- and intra-assay coefficients of variation (CV) obtained in the laboratory were as follows: PIGF, 6.02 and 4.8%, respectively; s-Eng, 2.3 and 4.6%, respectively; sVEGFR-1, 1.4 and 3.9%, respectively; and sVEGFR-2, 2 and 4%, respectively. […]

PIGF = assay: Maternal plasma PIGF concentration by immunoassay; type: in vivo, human; settings: pravastatin 20 mg once daily since 17+4 weeks, one pregnant subject
Experimental: as §1, §2, §3, §4, §5

sEng = assay: Maternal plasma sEng concentration by immunoassay; type: in vivo, human; settings: pravastatin 20 mg once daily since 17+4 weeks, one pregnant subject
Experimental: as §1, §2, §3, §4, §5

PIGF/sVEGFR-1 = assay: Maternal plasma PIGF/sVEGFR-1 concentration ratio; type: in vivo, human; settings: pravastatin 20 mg once daily since 17+4 weeks, one pregnant subject
Experimental: as §1
Quantile regression was used to calculate median analyte ratio concentrations (PIGF/sVEGFR-1, PIGF/sEng) conditional upon GA among uncomplicated pregnancies (n=886). MoM values were calculated for both analyte ratios for each subject. MoM cutoffs were calculated based on inspection of receiver operating characteristic (ROC) curves calculated for each outcome (stillbirth, late PE, severe late PE, and SGA without PE). Prognostic logistic regression models were constructed for each outcome, including the MoM cutoff and clinical risk factors. Covariables included in adjusted models were selected based on clinical knowledge. Model reduction was performed additionally based on the plausibility of regression coefficients, association with independent variables and the magnitude of change in the main effect parameter estimates. To account for potential model over-fitting, when van Houwelingen and le Cessie's heuristic shrinkage estimator fell below 0.85 (indicator of instability), bootstrap estimated linear shrinkage factors and Firth's penalized maximum likelihood estimation were used to calculate conservative estimates less likely to be affected by over-fitting.
Statistical Analysis. Proportions and 95% CI or medians and interquartile ranges were calculated for categorical and arithmetic variables. Pearson correlation coefficients were used to characterize bivariate relation among arithmetic variables. Quantile regression models were fitted to estimate expected medians of biochemical analyte concentrations and Doppler velocimetry PI as a function of gestational week at examination for women with uncomplicated term pregnancies. MoM were calculated for each biomarker (biochemical and sonographic) for each subject. […]

[2] = cited from earlier work; remark: listed apart in the source
[3] = dually perfused term human placental lobule

## CC[C@H](C)C(=O)O[C@H]1C[C@@H](C)C=C2C=C[C@H](C)[C@H](CC[C@@H]3C[C@@H](O)CC(=O)O3)[C@H]21 [lovastatin, Lovastatin]
[1]; subjects with an early exposure to these drugs
  Adverse pregnancy outcomes, post marketing surveillance: has not found any adverse pregnancy outcomes

## CC[C@H](C)C(=O)O[C@H]1C[C@H](O)C=C2C=C[C@H](C)[C@H](CC[C@@H](O)C[C@@H](O)CC(=O)O)[C@H]21 [pravastatin, Pravastatin]
sVEGFR-1; GA 19+5 weeks
  Plasma concentration of sVEGFR-1: 4148 pg/mL
sVEGFR-1; GA 21+6 weeks
  Plasma concentration of sVEGFR-1: 1889 pg/mL
sVEGFR-1; GA 25+3 weeks
  Plasma concentration of sVEGFR-1: 2854 pg/mL
sVEGFR-1; GA 27+4 weeks
  Plasma concentration of sVEGFR-1: 3881 pg/mL
  Plasma sVEGFR-1, percentile for GA: (90) percentile
sVEGFR-1; GA 29+4 weeks
  Plasma concentration of sVEGFR-1: 4684 pg/mL
  Plasma sVEGFR-1, percentile for GA: (93) percentile
sVEGFR-1; GA 31+4 weeks
  Plasma concentration of sVEGFR-1: 6370 pg/mL
  Plasma sVEGFR-1, percentile for GA: (97) percentile
sVEGFR-1; GA 33+5 weeks
  Plasma concentration of sVEGFR-1: 11202 pg/mL
PIGF; GA 19+5 weeks
  Plasma concentration of PIGF: 306 pg/mL
PIGF; GA 21+6 weeks
  Plasma concentration of PIGF: 644 pg/mL
PIGF; GA 25+3 weeks
  Plasma concentration of PIGF: 768 pg/mL
PIGF; GA 27+4 weeks
  Plasma PIGF, percentile for GA: (74) percentile
  Plasma concentration of PIGF: 869 pg/mL
PIGF; GA 29+4 weeks
  Plasma PIGF, percentile for GA: (65) percentile
  Plasma concentration of PIGF: 821 pg/mL
PIGF; GA 31+4 weeks
  Plasma PIGF, percentile for GA: (44) percentile
  Plasma concentration of PIGF: 536 pg/mL
PIGF; GA 33+5 weeks
  Plasma concentration of PIGF: 528 pg/mL
sEng; GA 19+5 weeks
  Plasma concentration of sEng: 13.1 ng/mL
  Plasma sEng, percentile for GA: (98) percentile
sEng; GA 21+6 weeks
  Plasma concentration of sEng: 8.7 ng/mL
sEng; GA 25+3 weeks
  Plasma concentration of sEng: 8.8 ng/mL
  Plasma sEng, percentile for GA: (94) percentile
sEng; GA 27+4 weeks
  Plasma concentration of sEng: 9.9 ng/mL
  Plasma sEng, percentile for GA: (95) percentile
sEng; GA 29+4 weeks
  Plasma concentration of sEng: 12.7 ng/mL
  Plasma sEng, percentile for GA: (97) percentile
sEng; GA 31+4 weeks
  Plasma concentration of sEng: 9.6 ng/mL
  Plasma sEng, percentile for GA: (85) percentile
sEng; GA 33+5 weeks
  Plasma concentration of sEng: 12.7 ng/mL
  Plasma sEng, percentile for GA: (85) percentile
PIGF/sVEGFR-1; GA 19+5 weeks
  PIGF/sVEGFR-1 concentration ratio: 0.07
  PIGF/sVEGFR-1 ratio, percentile for GA: (23) percentile
PIGF/sVEGFR-1; GA 21+6 weeks
  PIGF/sVEGFR-1 concentration ratio: 0.34
  PIGF/sVEGFR-1 ratio, percentile for GA: (90) percentile
PIGF/sVEGFR-1; GA 25+3 weeks
  PIGF/sVEGFR-1 concentration ratio: 0.27
  PIGF/sVEGFR-1 ratio, percentile for GA: (51) percentile
PIGF/sVEGFR-1; GA 27+4 weeks
  PIGF/sVEGFR-1 concentration ratio: 0.22
  PIGF/sVEGFR-1 ratio, percentile for GA: (34) percentile
PIGF/sVEGFR-1; GA 29+4 weeks
  PIGF/sVEGFR-1 concentration ratio: 0.18
  PIGF/sVEGFR-1 ratio, percentile for GA: (25) percentile
PIGF/sVEGFR-1; GA 31+4 weeks
  PIGF/sVEGFR-1 concentration ratio: 0.08
  PIGF/sVEGFR-1 ratio, percentile for GA: (10) percentile
PIGF/sVEGFR-1; GA 33+5 weeks
  PIGF/sVEGFR-1 concentration ratio: 0.04
  PIGF/sVEGFR-1 ratio, percentile for GA: (6) percentile
[2]; [3]
  Pravastatin remained in the maternal circuit: 68%
  Pravastatin retained by the placental tissue: 14%
  Pravastatin transferred to the fetal circuit: 18%
[2]; fetal to maternal versus maternal to fetal compartment
  Direction of placental transfer: higher transfer of pravastatin from the fetal to the maternal compartment than the reverse
[1]; humans, exposure during pregnancy
  Abnormal pregnancy outcomes following exposure: abnormal pregnancy outcomes were not reported
